This is an account of results in patent US9820966B2, “Stabilized statin formulations” (Cumberland Pharmaceuticals Inc., priority 2010, dated 2017).

Structures are written as SMILES. Like-named read-outs stand apart in the source and are kept apart here.

The conditions of data set [1]: AS in propylene glycol and ethanol (4/1), pH 11.0; in 2 hours. Here is the method: The sample was then vortexed, filtered, after which it was analyzed by HPLC.
Data set [2] in a line: Precipitation on dilution into water or saline. It counts as physicochemical.
A short description of data set [3]: Solubility in basic solutions without cyclodextrin (HPLC). The following applies: Sample 1: 20 mg AS in 1 mL, 16.54 mM L-Arg; pH 10.71 with L-Arg (L-Arg alone).

On to `CC(C)c1c(C(=O)Nc2ccccc2)c(-c2ccccc2)c(-c2ccc(F)cc2)n1CC[C@@H](O)C[C@@H](O)CC(=O)O` [AS, Atorvastatin free acid], for which the degradation entry in data set [1] is reported as “approximately 50%”. Further, the precipitation on dilution result was “precipitated” in data set [2] (100% ethanol solution, diluted 1:1 with saline) and “precipitated” in data set [2] (100% propylene glycol solution, diluted 1:1 with saline). In data set [3], this compound yielded a resulting concentration of 1.91 mg/mL.
For `CC(C)c1c(C(=O)Nc2ccccc2)c(-c2ccccc2)c(-c2ccc(F)cc2)n1CC[C@@H](O)C[C@@H](O)CC(=O)O` [AS—Ca, atorvastatin calcium trihydrate], the precipitation on dilution result is reported as “precipitated” in data set [2] (Example 12 PG/ethanol/water sample adjusted to pH 7.5, diluted 1:1 into water); “precipitated” in data set [2] (Example 12 PG/ethanol/water sample adjusted to pH 8.0, diluted 1:1 into water); “precipitation” in data set [2] (anything less than 40% propylene glycol and 10% ethanol, diluted with normal saline); “precipitate” in data set [2] (prepared in non-aqueous co-solvents and then diluted into saline); “precipitated” in data set [2] (propylene glycol and ethanol (4/1), pH 11.0, diluted 1:3 in saline). Further, the degradation is around 15.5% (control solution of the same mixture (20% HPβ-CD, pH 8.47), 40° C. for 1 month); around 3.5% (solubilized with HPβ-CD (20%, pH 8.47), lyophilized with manifold freeze dryer, 40° C. for 1 month); “less than 0.1%” (solubilized with HPβ-CD, diluted 1:1 into 8% sucrose, lyophilized with shelf freeze dryer, storage 1 month at 40° C.).
